Reference: PMC6540285, “Evaluation of Protein Kinase Inhibitors with PLK4 Cross-Over Potential in a Pre-Clinical Model of Cancer” (International Journal of Molecular Sciences, 2019)

Columns and labels:
[1] = target: PAK7 (KIAA1264) (Homo sapiens, UniProt Q9P286); assay: SelectScreen kinase profiling, ZLYTE; type: biochemical
From the text: (§1) Kinase Technology % Inhibition Avg Kinase Technology % Inhibition Avg
(§2) STK23 (MSSK1) ZLYTE 59 TGFBR1 (ALK5) LanthaScreen 85
(§3) STK24 (MST3) ZLYTE 85 TGFBR2 LanthaScreen 77
(§4) STK25 (YSK1) ZLYTE 45 TLK1 LanthaScreen 4
(§5) STK3 (MST2) ZLYTE 77 TLK2 LanthaScreen 33
(§6) STK32B (YANK2) LanthaScreen 61 TNIK LanthaScreen 15
(§7) STK32C (YANK3) LanthaScreen 62 TNK1 ZLYTE 94
(§8) STK33 LanthaScreen 81 TNK2 (ACK) LanthaScreen 71
(§9) STK38 (NDR) LanthaScreen 85 TTK LanthaScreen 54
(§10) STK38L (NDR2) LanthaScreen 59 TXK ZLYTE 94
(§11) STK39 (STLK3) LanthaScreen 38 TYK2 ZLYTE 99
(§12) STK4 (MST1) ZLYTE 93 TYRO3 (RSE) ZLYTE 92
(§13) SYK ZLYTE 98 ULK1 LanthaScreen 80
(§14) TAOK1 LanthaScreen 82 ULK2 LanthaScreen 56
(§15) TAOK2 (TAO1) ZLYTE 87 ULK3 LanthaScreen 5
(§16) TAOK3 (JIK) LanthaScreen 25 VRK2 LanthaScreen 32
(§17) TBK1 ZLYTE 99 WEE1 LanthaScreen 75
(§18) TEC LanthaScreen -9 WNK1 LanthaScreen 2
(§19) TEK (Tie2) ZLYTE 99 WNK2 LanthaScreen 1
(§20) TEK (TIE2) R849W LanthaScreen -5 WNK3 LanthaScreen 7
(§21) TEK (TIE2) Y897S ZLYTE 80 ZAK LanthaScreen 77
(§22) TESK1 LanthaScreen 37 ZAP70 ZLYTE 24
(§23) cleavage (Thermo Fisher Scientific, USA)

[2] = target: MAPKAPK3 (Homo sapiens, UniProt Q16644); assay: SelectScreen kinase profiling, ZLYTE; type: biochemical; conditions: MAPKAPK3, 10 µM
From the text: as §1, §2, §3, §4, §5, §6, §7, §8, §9, §10, §11, §12, §13, §14, §15, §16, §17, §18, §19, §20, §21, §22, §23

[3] = target: PDGFRA T674I (Homo sapiens, UniProt P16234, T674I); assay: SelectScreen kinase profiling, ZLYTE; type: biochemical
From the text: as §1, §2, §3, §4, §5, §6, §7, §8, §9, §10, §11, §12, §13, §14, §15, §16, §17, §18, §19, §20, §21, §22, §23

[4] = target: INSR (Homo sapiens, UniProt P06213); assay: SelectScreen kinase profiling, ZLYTE; type: biochemical
Sequence of INSR (P06213 28-1382): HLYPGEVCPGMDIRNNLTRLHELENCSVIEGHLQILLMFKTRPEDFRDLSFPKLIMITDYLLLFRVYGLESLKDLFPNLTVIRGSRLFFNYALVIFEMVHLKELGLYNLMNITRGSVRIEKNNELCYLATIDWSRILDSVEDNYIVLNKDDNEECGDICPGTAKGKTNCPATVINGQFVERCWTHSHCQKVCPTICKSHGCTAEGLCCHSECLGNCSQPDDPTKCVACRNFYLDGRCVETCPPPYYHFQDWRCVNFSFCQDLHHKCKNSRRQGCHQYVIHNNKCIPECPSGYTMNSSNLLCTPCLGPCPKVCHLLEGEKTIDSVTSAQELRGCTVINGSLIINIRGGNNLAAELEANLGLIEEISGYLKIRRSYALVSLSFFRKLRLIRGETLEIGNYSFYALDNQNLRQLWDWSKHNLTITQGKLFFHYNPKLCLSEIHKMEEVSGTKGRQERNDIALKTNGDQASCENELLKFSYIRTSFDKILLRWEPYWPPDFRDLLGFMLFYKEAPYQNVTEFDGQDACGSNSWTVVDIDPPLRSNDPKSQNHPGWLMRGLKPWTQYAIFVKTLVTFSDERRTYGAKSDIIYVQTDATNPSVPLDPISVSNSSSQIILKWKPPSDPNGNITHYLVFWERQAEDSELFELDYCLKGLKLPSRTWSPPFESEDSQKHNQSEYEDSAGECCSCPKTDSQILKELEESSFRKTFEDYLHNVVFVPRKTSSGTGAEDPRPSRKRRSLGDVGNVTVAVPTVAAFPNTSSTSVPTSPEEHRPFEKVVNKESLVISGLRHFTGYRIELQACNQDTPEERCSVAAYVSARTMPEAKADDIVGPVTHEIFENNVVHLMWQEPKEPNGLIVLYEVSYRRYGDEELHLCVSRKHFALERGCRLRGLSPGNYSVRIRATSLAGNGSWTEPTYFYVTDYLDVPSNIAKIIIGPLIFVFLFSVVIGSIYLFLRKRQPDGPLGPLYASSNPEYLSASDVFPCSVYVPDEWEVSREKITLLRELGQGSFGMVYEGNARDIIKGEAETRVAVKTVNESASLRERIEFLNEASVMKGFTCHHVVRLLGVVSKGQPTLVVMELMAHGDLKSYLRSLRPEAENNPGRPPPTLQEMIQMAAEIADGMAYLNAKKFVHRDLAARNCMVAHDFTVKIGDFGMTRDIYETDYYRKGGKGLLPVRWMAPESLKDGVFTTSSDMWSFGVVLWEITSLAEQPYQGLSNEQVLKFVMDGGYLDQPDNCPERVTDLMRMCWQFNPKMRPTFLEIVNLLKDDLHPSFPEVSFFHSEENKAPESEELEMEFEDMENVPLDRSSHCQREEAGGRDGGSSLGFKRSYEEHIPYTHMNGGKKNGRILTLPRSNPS
From the text: as §1, §2, §3, §4, §5, §6, §7, §8, §9, §10, §11, §12, §13, §14, §15, §16, §17, §18, §19, §20, §21, §22, §23

[5] = target: STK22D (TSSK1) (Homo sapiens, UniProt Q9BXA7); assay: SelectScreen kinase profiling, ZLYTE; type: biochemical
From the text: as §1, §2, §3, §4, §5, §6, §7, §8, §9, §10, §11, §12, §13, §14, §15, §16, §17, §18, §19, §20, §21, §22, §23

[6] = target: BTK (Homo sapiens, UniProt Q06187); assay: SelectScreen kinase profiling, ZLYTE; type: biochemical
From the text: as §1, §2, §3, §4, §5, §6, §7, §8, §9, §10, §11, §12, §13, §14, §15, §16, §17, §18, §19, §20, §21, §22, §23

[7] = target: PLK2 (Homo sapiens, UniProt Q9NYY3); assay: SelectScreen kinase profiling, ZLYTE; type: biochemical; conditions: PLK2, 10 µM
From the text: as §1, §2, §3, §4, §5, §6, §7, §8, §9, §10, §11, §12, §13, §14, §15, §16, §17, §18, §19, §20, §21, §22, §23

[8] = target: CSNK1E (CK1 epsilon) (Homo sapiens, UniProt P49674); assay: SelectScreen kinase profiling, ZLYTE; type: biochemical
From the text: as §1, §2, §3, §4, §5, §6, §7, §8, §9, §10, §11, §12, §13, §14, §15, §16, §17, §18, §19, §20, §21, §22, §23

[9] = target: INSRR (IRR) (Homo sapiens, UniProt P14616); assay: SelectScreen kinase profiling, ZLYTE; type: biochemical
From the text: as §1, §2, §3, §4, §5, §6, §7, §8, §9, §10, §11, §12, §13, §14, §15, §16, §17, §18, §19, §20, §21, §22, §23

[10] = target: PKN1 (PRK1) (Homo sapiens, UniProt Q16512); assay: SelectScreen kinase profiling, ZLYTE; type: biochemical
From the text: as §1, §2, §3, §4, §5, §6, §7, §8, §9, §10, §11, §12, §13, §14, §15, §16, §17, §18, §19, §20, §21, §22, §23

[11] = target: SRPK1 (Homo sapiens, UniProt Q96SB4); assay: SelectScreen kinase profiling, ZLYTE; type: biochemical; conditions: SRPK1, 10 µM
From the text: as §1, §2, §3, §4, §5, §6, §7, §8, §9, §10, §11, §12, §13, §14, §15, §16, §17, §18, §19, §20, §21, §22, §23

[12] = target: RPS6KA3 (RSK2) (Homo sapiens, UniProt P51812); assay: SelectScreen kinase profiling, ZLYTE; type: biochemical
From the text: as §1, §2, §3, §4, §5, §6, §7, §8, §9, §10, §11, §12, §13, §14, §15, §16, §17, §18, §19, §20, §21, §22, §23

[13] = target: PTK2 (FAK) (Homo sapiens, UniProt Q05397); assay: SelectScreen kinase profiling, ZLYTE; type: biochemical
From the text: as §1, §2, §3, §4, §5, §6, §7, §8, §9, §10, §11, §12, §13, §14, §15, §16, §17, §18, §19, §20, §21, §22, §23

[14] = target: DYRK4 (Homo sapiens, UniProt Q9NR20); assay: SelectScreen kinase profiling, ZLYTE; type: biochemical; conditions: DYRK4, 10 µM
Sequence of DYRK4 (Q9NR20 whole entry): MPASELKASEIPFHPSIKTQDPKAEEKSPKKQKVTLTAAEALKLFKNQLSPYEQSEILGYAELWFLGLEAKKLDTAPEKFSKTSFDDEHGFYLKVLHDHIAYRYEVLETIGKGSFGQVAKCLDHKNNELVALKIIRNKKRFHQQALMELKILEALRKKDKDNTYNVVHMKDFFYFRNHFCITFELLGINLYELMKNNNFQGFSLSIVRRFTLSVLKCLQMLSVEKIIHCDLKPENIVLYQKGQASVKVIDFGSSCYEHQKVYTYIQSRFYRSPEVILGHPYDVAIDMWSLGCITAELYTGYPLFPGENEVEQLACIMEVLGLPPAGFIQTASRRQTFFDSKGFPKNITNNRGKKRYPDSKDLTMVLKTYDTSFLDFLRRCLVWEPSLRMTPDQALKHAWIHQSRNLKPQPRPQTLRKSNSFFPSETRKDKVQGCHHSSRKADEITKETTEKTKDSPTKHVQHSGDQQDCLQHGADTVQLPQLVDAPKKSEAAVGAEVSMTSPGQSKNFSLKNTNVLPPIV
From the text: as §1, §2, §3, §4, §5, §6, §7, §8, §9, §10, §11, §12, §13, §14, §15, §16, §17, §18, §19, §20, §21, §22, §23

[15] = target: KSR2 (Homo sapiens, UniProt Q6VAB6); assay: SelectScreen kinase profiling, ZLYTE; type: biochemical; conditions: KSR2, 10 µM
From the text: as §1, §2, §3, §4, §5, §6, §7, §8, §9, §10, §11, §12, §13, §14, §15, §16, §17, §18, §19, §20, §21, §22, §23

[16] = target: MST1R (RON) (Homo sapiens, UniProt Q04912); assay: SelectScreen kinase profiling, ZLYTE; type: biochemical
From the text: as §1, §2, §3, §4, §5, §6, §7, §8, §9, §10, §11, §12, §13, §14, §15, §16, §17, §18, §19, §20, §21, §22, §23

[17] = target: RAF1 (cRAF) Y340D Y341D (Homo sapiens, UniProt P04049, Y340D/Y341D); assay: SelectScreen kinase profiling, ZLYTE; type: biochemical
From the text: as §1, §2, §3, §4, §5, §6, §7, §8, §9, §10, §11, §12, §13, §14, §15, §16, §17, §18, §19, §20, §21, §22, §23

[18] = target: NEK6 (Homo sapiens, UniProt Q9HC98); assay: SelectScreen kinase profiling, ZLYTE; type: biochemical; conditions: NEK6, 10 µM
From the text: as §1, §2, §3, §4, §5, §6, §7, §8, §9, §10, §11, §12, §13, §14, §15, §16, §17, §18, §19, §20, §21, §22, §23

[19] = target: GRK5 (Homo sapiens, UniProt P34947); assay: SelectScreen kinase profiling, ZLYTE; type: biochemical; conditions: GRK5, 10 µM
From the text: as §1, §2, §3, §4, §5, §6, §7, §8, §9, §10, §11, §12, §13, §14, §15, §16, §17, §18, §19, §20, §21, §22, §23

[20] = target: PTK6 (Brk) (Homo sapiens, UniProt Q13882); assay: SelectScreen kinase profiling, ZLYTE; type: biochemical
From the text: as §1, §2, §3, §4, §5, §6, §7, §8, §9, §10, §11, §12, §13, §14, §15, §16, §17, §18, §19, §20, §21, §22, §23

[21] = target: MAP3K19 (YSK4) (Homo sapiens, UniProt Q56UN5); assay: SelectScreen kinase profiling, ZLYTE; type: biochemical
[22] = target: MAP2K6 (MKK6) (Homo sapiens, UniProt P52564); assay: SelectScreen kinase profiling, LanthaScreen binding
Sequence of MAP2K6 (MKK6) (P52564 whole entry): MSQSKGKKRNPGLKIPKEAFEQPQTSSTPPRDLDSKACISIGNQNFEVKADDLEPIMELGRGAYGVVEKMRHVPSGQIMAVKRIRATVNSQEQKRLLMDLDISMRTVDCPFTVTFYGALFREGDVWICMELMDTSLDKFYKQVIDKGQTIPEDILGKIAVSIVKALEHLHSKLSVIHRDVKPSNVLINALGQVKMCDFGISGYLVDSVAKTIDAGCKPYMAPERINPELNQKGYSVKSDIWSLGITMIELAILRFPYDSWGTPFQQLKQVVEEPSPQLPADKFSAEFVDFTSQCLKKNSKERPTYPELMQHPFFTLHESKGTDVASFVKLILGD

[23] = target: P450 2C19 (Homo sapiens, UniProt P33261); assay: SelectScreen P450 Vivid biochemical assay; conditions: 10000nM; substrate EOMCC
[24] = target: AMPK (A2/B2/G3) (Homo sapiens, UniProt P54646); assay: SelectScreen kinase profiling, ZLYTE; type: biochemical
Sequence of AMPK (A2/B2/G3) (P54646 whole entry): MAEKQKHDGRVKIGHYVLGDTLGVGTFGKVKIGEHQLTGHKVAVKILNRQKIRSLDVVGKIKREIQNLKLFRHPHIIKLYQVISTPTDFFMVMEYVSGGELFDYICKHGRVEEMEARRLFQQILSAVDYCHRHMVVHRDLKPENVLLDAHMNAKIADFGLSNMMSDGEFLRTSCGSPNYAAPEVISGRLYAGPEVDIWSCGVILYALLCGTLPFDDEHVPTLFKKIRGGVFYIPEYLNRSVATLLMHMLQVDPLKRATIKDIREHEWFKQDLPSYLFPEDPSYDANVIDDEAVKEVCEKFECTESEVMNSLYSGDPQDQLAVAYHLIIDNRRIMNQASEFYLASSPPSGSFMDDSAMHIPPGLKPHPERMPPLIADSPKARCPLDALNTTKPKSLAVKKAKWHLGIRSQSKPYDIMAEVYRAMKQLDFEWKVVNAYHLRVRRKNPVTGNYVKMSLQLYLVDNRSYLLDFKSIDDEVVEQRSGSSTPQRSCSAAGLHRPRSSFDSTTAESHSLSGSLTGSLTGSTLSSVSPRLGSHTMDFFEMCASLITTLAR
Sequence of AMPK (A2/B2/G3) (O43741 whole entry partner): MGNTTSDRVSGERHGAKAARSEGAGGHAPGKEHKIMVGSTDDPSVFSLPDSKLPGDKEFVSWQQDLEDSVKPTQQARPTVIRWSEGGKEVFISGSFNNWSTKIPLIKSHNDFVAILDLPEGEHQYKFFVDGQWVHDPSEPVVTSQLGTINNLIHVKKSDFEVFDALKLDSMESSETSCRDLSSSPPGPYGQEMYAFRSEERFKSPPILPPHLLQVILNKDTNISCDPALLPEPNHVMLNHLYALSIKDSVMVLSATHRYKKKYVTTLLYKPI
Sequence of AMPK (A2/B2/G3) (Q9UGI9 whole entry partner): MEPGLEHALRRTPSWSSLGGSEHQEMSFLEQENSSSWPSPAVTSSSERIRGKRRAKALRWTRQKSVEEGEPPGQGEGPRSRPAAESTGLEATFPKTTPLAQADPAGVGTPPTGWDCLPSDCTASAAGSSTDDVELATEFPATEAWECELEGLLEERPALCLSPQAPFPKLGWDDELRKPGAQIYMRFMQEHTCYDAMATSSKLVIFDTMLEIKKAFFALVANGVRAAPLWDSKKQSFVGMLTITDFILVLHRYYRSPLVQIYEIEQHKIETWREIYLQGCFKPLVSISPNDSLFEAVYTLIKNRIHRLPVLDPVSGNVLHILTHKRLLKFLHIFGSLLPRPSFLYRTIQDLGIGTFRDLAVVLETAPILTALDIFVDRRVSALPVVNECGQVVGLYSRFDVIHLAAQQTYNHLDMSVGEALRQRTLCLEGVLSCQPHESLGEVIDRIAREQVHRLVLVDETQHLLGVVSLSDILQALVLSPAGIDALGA

[25] = target: PRKACG (PRKAC gamma) (Homo sapiens, UniProt P22612); assay: SelectScreen kinase profiling, LanthaScreen binding
[26] = target: ACVR2B (Homo sapiens, UniProt Q13705); assay: as above
[27] = target: LCK (Homo sapiens, UniProt P06239); assay: SelectScreen kinase profiling, ZLYTE; type: biochemical
Sequence of LCK (P06239 whole entry): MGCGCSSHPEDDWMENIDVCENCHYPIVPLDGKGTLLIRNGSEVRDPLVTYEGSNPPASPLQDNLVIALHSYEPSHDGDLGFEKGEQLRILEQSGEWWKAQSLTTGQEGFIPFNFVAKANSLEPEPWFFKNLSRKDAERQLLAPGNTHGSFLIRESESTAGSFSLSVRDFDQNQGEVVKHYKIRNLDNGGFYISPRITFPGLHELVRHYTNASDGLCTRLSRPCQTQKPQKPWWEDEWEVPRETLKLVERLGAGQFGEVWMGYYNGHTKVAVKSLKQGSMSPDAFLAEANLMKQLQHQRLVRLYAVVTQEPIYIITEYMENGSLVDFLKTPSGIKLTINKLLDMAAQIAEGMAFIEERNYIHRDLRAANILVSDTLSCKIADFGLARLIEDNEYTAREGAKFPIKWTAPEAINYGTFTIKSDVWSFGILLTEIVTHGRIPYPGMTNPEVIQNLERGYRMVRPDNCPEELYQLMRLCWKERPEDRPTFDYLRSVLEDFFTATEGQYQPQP

[28] = target: RET A883F (Homo sapiens, UniProt P07949, A883F); assay: SelectScreen kinase profiling, ZLYTE; type: biochemical
[29] = target: AMPK A1/B1/G1 (Homo sapiens, UniProt Q13131); assay: SelectScreen kinase profiling, ZLYTE; type: biochemical; conditions: AMPK A1/B1/G1, 10 µM
[30] = target: LRRK2 G2019S (Homo sapiens, UniProt Q5S007, G2019S); assay: SelectScreen kinase profiling, Adapta; type: biochemical
[31] = target: RET V804M (Homo sapiens, UniProt P07949, V804M); assay: SelectScreen kinase profiling, LanthaScreen binding

Sequence of PAK7 (KIAA1264) (Q9P286 whole entry): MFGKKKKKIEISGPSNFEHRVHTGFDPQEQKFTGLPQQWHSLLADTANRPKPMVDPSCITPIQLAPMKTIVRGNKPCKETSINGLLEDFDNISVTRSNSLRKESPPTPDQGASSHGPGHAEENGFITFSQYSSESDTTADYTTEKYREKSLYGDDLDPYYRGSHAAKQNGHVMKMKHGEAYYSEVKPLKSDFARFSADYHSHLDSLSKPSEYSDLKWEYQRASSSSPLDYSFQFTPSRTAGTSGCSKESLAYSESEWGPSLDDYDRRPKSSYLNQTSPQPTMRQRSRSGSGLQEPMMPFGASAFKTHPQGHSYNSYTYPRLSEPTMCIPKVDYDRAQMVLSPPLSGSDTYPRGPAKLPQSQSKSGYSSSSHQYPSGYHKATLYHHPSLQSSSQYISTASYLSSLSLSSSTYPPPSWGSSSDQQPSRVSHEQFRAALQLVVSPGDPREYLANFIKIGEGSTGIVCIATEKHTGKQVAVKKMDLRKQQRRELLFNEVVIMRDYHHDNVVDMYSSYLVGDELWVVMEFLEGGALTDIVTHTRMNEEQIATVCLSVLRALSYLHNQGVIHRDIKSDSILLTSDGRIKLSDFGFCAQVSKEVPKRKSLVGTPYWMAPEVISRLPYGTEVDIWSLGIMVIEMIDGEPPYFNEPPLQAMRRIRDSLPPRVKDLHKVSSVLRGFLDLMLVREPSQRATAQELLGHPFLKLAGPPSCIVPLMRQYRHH

O=C(c1ccc(/C=C/c2n[nH]c3ccccc23)cc1)N1CCNCC1 [KW-2449]
inhibition at 10 µM [1]: 98% | inhibition at 10 µM [2]: 4% | inhibition at 10 µM [3]: 97% | inhibition at 10 µM [4]: 96% | inhibition at 10 µM [5]: 99% | inhibition at 10 µM [6]: 99% | inhibition at 10 µM [7]: 35% | inhibition at 10 µM [8]: 67% | inhibition at 10 µM [9]: 96% | inhibition at 10 µM [10]: 72% | inhibition at 10 µM [11]: 31% | inhibition at 10 µM [12]: 95% | inhibition at 10 µM [13]: 95% | inhibition at 10 µM [14]: 16% | inhibition at 10 µM [15]: 5% | inhibition at 10 µM [16]: 97% | inhibition at 10 µM [17]: 74% | inhibition at 10 µM [18]: 10% | inhibition at 10 µM [19]: 17% | inhibition at 10 µM [20]: 71% | inhibition at 10 µM [21]: 98% | inhibition at 10 µM [22]: 56% | % Inhibition 2C19 EOMCC [23]: 51% | inhibition at 10 µM [24]: 98% | inhibition at 10 µM [25]: 18% | inhibition at 10 µM [26]: 94% | inhibition at 10 µM [27]: 97% | inhibition at 10 µM [28]: 99% | inhibition at 10 µM [29]: 97% | inhibition at 10 µM [30]: 100% | inhibition at 10 µM [31]: -5%
